The source of these data is US5179089A, “Isoquinoline compounds, compositions and use” (Chinoin Gyogyszer es Vegyeszeti Termekek Gyara Rt., priority 1990, dated 1993).

Structures can show the parent of a compound that is named as a salt. Where two headings read alike, the source gives them in different places.

For assay [1], the system named is histamine-induced constriction of isolated tracheal smooth muscle of guinea pig. Put plainly: Inhibition of the histamine-induced constriction of isolated tracheal smooth muscle of guinea pig. The note with it: isolated guinea pig trachea; for IC50: Cavia porcellus, 0.25 h, read-out: Inhibition of the histamine-induced constriction of isolated tracheal smooth muscle of guinea pig pd'2 (converted). As to the method: I Study on the Effects Against Spasmogenic Mediators [modified method of J. C. […] The investigation on isolated organs were carried out as follows. OHF Lt/R9 guinea pigs of both sexes weighing 300 to 400 g each were anaesthetized by pentobarbital. Their trachea was removed and sectioned in the opposite side to the site of smooth muscle in longitudinal direction. Subsequently, a strip-like preparation was obtained by […] cutting. […] A rest load of 0.5 g was used. Several washings were carried out during the incubation period of 30 minutes. The change in the tension of the tracheal smooth muscle was followed by using an isometric Grass FT-03 type tensiometer sensor device. A washing was made following the cumulative dose series of the given mediator (e.g. histamine). After reaching the base line, by 15 minutes after administration of the given concentration of the inhibitory (antiasthmatic) substance to be tested, the next cumulative dose series of the mediator was administered. In the case of an inhibitory action, the strength of effect, following the second dose series of the mediator, was […] in comparison to that of the first (control) series. For characterization of strength of the competitive antagonistic effect the pA2 value was determined according to the method of […] A pd'2 value was calculated [J. M. Van Rossum: Arch. Int.

Assay [2] has as its system carrageenin-induced rat paw edema. In words: Carrageenin-induced rat paw edema test. In kind it is in vivo, rat (female CFY). The conditions noted are these: Rattus norvegicus, po, 50 mg/kg (p.o.), read-out: Percentage of the protective effect. As to the method: Proc. Soc. Exp. Med. 111, 544 (1962)]. Female CFY rats weighing 100 to 120 g each were used after starvation for 24 hours. The inflammation was induced by injecting 0.1 ml of 1% carrageenin solution into the right hind paw plant. The severity of inflammation was determined by using an Ugo-Basile type plethysmometer. The measurement was carried out before and 1.5, 3 and 4.5 hours after induction of the inflammation. The animals were orally treated with the substance to be tested 1 hour before administration of carrageenin. The effect was expressed as percentage inhibition related to the control group.
In general terms: Carrageenan injected into the paw causes an acute inflammation.

Assay [3] concerns dextran-induced rat paw edema. In words: Dextran-induced rat paw edema test. The format is in vivo. The note with it: 50 mg/kg (p.o.). As to the method: 3) Dextran-induced rat paw edema test The method of S. Gourvaisier and R. Ducrot [Arch. Int. Pharmacodyn. Ther. 102, 33 (1955)] was employed. The method described for the carrageenin edema test was followed, except that the measurements were carried out 30, 60, 90, 120 and 180 minutes after induction of the inflammation.

For `CCOc1cc2c(cc1OCC)C(=C(C#N)SCC(O)CN1CCOCC1)NCC2.Cl` (single isomer, unassigned; (+)) [Example 28, (+)-2-(6,7-diethoxy-1,2,3,4-tetrahydro-1-isoquinolinylidene)-2-[2-hydroxy-3-(4-morpholinyl)propyl]mercaptoacetonitrile hydrochloride], the “Inhibition of the histamine-induced constriction of isolated tracheal smooth muscle of guinea pig pd'2” value in assay [1] (15 min) turned out to be 6.36.
On to `CCOc1cc2c(cc1OCC)C(=C(C#N)SCC(O)CN1CCOCC1)NCC2` (single isomer, unassigned; (-)) [Example 27, (-)-2-(6,7-diethoxy-1,2,3,4-tetrahydro-1-isoquinolinylidene)-2-[2-hydroxy-3-(4-morpholinyl)propyl]mercaptoacetonitrile d-camphorsulfonate], for which, in assay [1], the IC50 is 0.537 µM.
As to `CCN(CC)CC(O)CSC(C#N)=C1NCCc2cc(OC)c(OC)cc21` (centres unmarked) [Example 1, 2-(6,7-dimethoxy-1,2,3,4-tetrahydro-1-isoquinolinylidene)-2-(3-diethylamino-2-hydroxypropyl)-mercaptoacetonitrile hydrochloride], the IC50 in assay [1] was 9.12 µM.
As for `CCOc1cc2c(cc1OCC)C(=C(C#N)SCC(O)CN(CC)CC)NCC2` (centres unmarked) [Example 2, 2-(6,7-diethoxy-1,2,3,4-tetrahydro-1-isoquinolinylidene)-2-(3-diethylamino-2-hydroxypropyl)-mercaptoacetonitrile hydrochloride], the IC50 in assay [1] was 12.3 µM. In addition, the change in vivo at 50 mg/kg in assay [2] (1.5 hours) was -22.9%; in assay [2] (3 hours), -20.6%; in assay [2] (4.5 hours) it was -11.3%. In addition, the Percentage of inhibition is reported as -24% in assay [3] (30 minutes); -21% in assay [3] (60 minutes); -25% in assay [3] (90 minutes); -23% in assay [3] (120 minutes); -17% in assay [3] (180 minutes).
On to `COc1cc2c(cc1OC)C(=C(C#N)SCC(O)CN(C)CCO)NCC2` (centres unmarked) [Example 3, 2-(6,7-dimethoxy-1,2,3,4-tetrahydro-isoquinolinylidene)-2-[3-(N-methyl-N-2-hydroxyethyl)-amino-2-hydroxypropyl]-mercapto-acetonitrile hydrochloride], for which the IC50 in assay [1] was 26.9 µM.
`COc1cc2c(cc1OC)C(=C(C#N)SCC(O)CN(CCO)CCO)NCC2` (centres unmarked) [Example 4, 2-(6,7-dimethoxy-1,2,3,4-tetrahydro-1-isoquinolinylidene)-2-[3-(N,N-bis-2-hydroxyethyl)-amino-2-hydroxypropyl]-mercapto-acetonitrile hydrochloride dihydrate]: in assay [1], the IC50 was 50.1 µM. Besides, the figures for the change in vivo at 50 mg/kg in assay [2] (1.5 hours), in assay [2] (3 hours) and in assay [2] (4.5 hours) were -25%, -26% and -24%, respectively.
As for `CCOc1cc2c(cc1OCC)C(=C(C#N)SCC(O)CN(CCO)CCO)NCC2` (centres unmarked) [Example 5, 2-(6,7-diethoxy-1,2,3,4-tetrahydro-1-isoquinolinylidene)-2-[3-(N,N-bis-2-hydroxyethyl)-amino-2-hydroxypropyl]mercapto-acetonitrile hydrochloride], the IC50 in assay [1] was 45.7 µM. In addition, the results for the change in vivo at 50 mg/kg in assay [2] (1.5 hours), in assay [2] (3 hours) and in assay [2] (4.5 hours) were -21%, -16.5% and -10%, respectively.
In the case of `COc1cc2c(cc1OC)C(=C(C#N)SCC(O)CNC(C)C)NCC2` (centres unmarked) [Example 6, 2-(6,7-dimethoxy-1,2,3,4-tetrahydro-1-isoquinolinylidene)-2-(2-hydroxy-3-isopropylaminopropyl)mercaptoacetonitrile hydrochloride hemihydrate], the IC50 in assay [1] is 0.204 µM. Moreover, the change in vivo at 50 mg/kg in assay [2] (1.5 hours) was 0%; in assay [2] (3 hours), -17%; in assay [2] (4.5 hours), 0%.
Regarding `CCOc1cc2c(cc1OCC)C(=C(C#N)SCC(O)CNC(C)C)NCC2` (centres unmarked) [Example 7, 2-(6,7-diethoxy-1,2,3,4-tetrahydro-1-isoquinolinylidene)-2-(2-hydroxy-3-isopropylaminopropyl)mercaptoacetonitrile hydrochloride], the IC50 in assay [1] was 17.4 µM.
With `COc1cc2c(cc1OC)C(=C(C#N)SCC(O)CNC(C)(C)C)NCC2` (centres unmarked) [Example 8, 2-(6,7-dimethoxy-1,2,3,4-tetrahydro-1-isoquinolinylidene)-2-(3-tert-butylamino-2-hydroxypropyl)mercaptoacetonitrile hydrochloride], the IC50 in assay [1] is 13.5 µM.
On to `CCOc1cc2c(cc1OCC)C(=C(C#N)SCC(O)CNC(C)(C)C)NCC2` (centres unmarked) [Example 9, 2-(6,7-diethoxy-1,2,3,4-tetrahydro-1-isoquinolinylidene)-2-(3-tert-butylamino-2-hydroxypropyl)mercaptoacetonitrile hydrochloride hemihydrate], for which the IC50 in assay [1] is 41.7 µM.
For the molecule `COc1cc2c(cc1OC)C(=C(C#N)SCC(O)CNC1CCCCC1)NCC2` (centres unmarked) [Example 10, 2-(6,7-dimethoxy-1,2,3,4-tetrahydro-1-isoquinolinylidene)-2-(3-cyclohexylamino-2-hydroxypropyl)mercaptoacetonitrile hydrochloride], in assay [1], the IC50 is 105 µM. For the same molecule, the change in vivo at 50 mg/kg in assay [2] (1.5 hours) is -14.8%; in assay [2] (3 hours), -13%; in assay [2] (4.5 hours), -7.2%. Moreover, the Percentage of inhibition in assay [3] (30 minutes) is -25%; in assay [3] (60 minutes), -24%; in assay [3] (90 minutes), -25%; in assay [3] (120 minutes) it was -27%; in assay [3] (180 minutes), -50%.
On to `CCOc1cc2c(cc1OCC)C(=C(C#N)SCC(O)CNC1CCCCC1)NCC2` (centres unmarked) [Example 11, 2-(6,7-diethoxy-1,2,3,4-tetrahydro-1-isoquinolinylidene)-2-(3-cyclohexylamino-2-hydroxypropyl)mercaptoacetonitrile hydrochloride], for which the IC50 in assay [1] is 35.5 µM.
As for `CCOc1cc2c(cc1OCC)C(=C(C#N)SCC(O)CN1CCCC1)NCC2` (centres unmarked) [Example 13, 2-(6,7-diethoxy-1,2,3,4-tetrahydro-1-isoquinolinylidene)-2-[2-hydroxy-3-(1-pyrrolidinyl)propyl]mercaptoacetonitrile hydrochloride], the IC50 in assay [1] was 12.6 µM. Besides, the change in vivo at 50 mg/kg in assay [2] (1.5 hours) was -31.8%; in assay [2] (3 hours), -21.8%; in assay [2] (4.5 hours) it was -9.05%.
On to `COc1cc2c(cc1OC)C(=C(C#N)SCC(O)CN1CCCCC1)NCC2` (centres unmarked) [Example 15, 2-(6,7-dimethoxy-1,2,3,4,-tetrahydro-1-isoquinolinylidene)-2-[2-hydroxy-3-(1-piperidinyl)propil]mercaptoacetonitrile hydrochloride], for which the IC50 in assay [1] was 34.7 µM.
As for `N#CC(SCC(O)CN1CCOCC1)=C1NCCc2ccccc21` (centres unmarked) [Example 16, 2-(1,2,3,4-tetrahydro-1-isoquinolinylidene)-2-[2-hydroxy-3-(4-morpholinyl)propyl]mercaptoacetonitrile hydrochloride hemihydrate], in assay [1], the IC50 was 32.4 µM. Moreover, the change in vivo at 50 mg/kg in assay [2] (1.5 hours) is -29.3%; in assay [2] (3 hours), -22.2%; in assay [2] (4.5 hours), -20%.
For `COc1cc2c(cc1OC)C(=C(C#N)SCC(O)CN1CCN(C)CC1)NCC2` (centres unmarked) [Example 21, 2-(6,7-dimethoxy-1,2,3,4-tetrahydro-1-isoquinolinylidene)-2-[2-hydroxy-3-(4-methyl-1-piperazinyl)propyl]mercaptoacetonitrile hydrochloride], the IC50 in assay [1] is 2.88 µM.
For `CCOc1cc2c(cc1OCC)C(=C(C#N)SCC(O)CN1CCN(C)CC1)NCC2` (centres unmarked) [Example 22, 2-(6,7-diethoxy-1,2,3,4-tetrahydro-1-isoquinolinylidene)-2-[2-hydroxy-3-(4-methyl-piperazinyl)propyl]mercaptoacetonitrile hydrochloride], the IC50 in assay [1] is 7.24 µM.
For the molecule `COc1cc2c(cc1OC)C(=C(C#N)SCC(CN1CCOCC1)OC(C)=O)NCC2` (centres unmarked) [Example 23, 2-(6,7-dimethoxy-1,2,3,4-tetrahydro-1-isoquinolinylidene)-2-[2-acetoxy-3-(4-morpholinyl)propyl]mercaptoacetonitrile hydrochloride], in assay [1], the IC50 is 17.4 µM. The results for the change in vivo at 50 mg/kg in assay [2] (1.5 hours), in assay [2] (3 hours) and in assay [2] (4.5 hours) were -33.8%, -30.9% and -29.5%, respectively.
